PubChem BioAssay AID1259407 (Chemical Carcinogenesis Research Information System (CCRIS), 2018)
Calls of active or inactive are those of the source. The rule behind the calls is not given here.

System: CCRIS mutagenicity, Ames/micronucleus/aberration tests
Experiment: CCRIS mutagenicity studies
[1] = Test System: AMES SALMONELLA TYPHIMURIUM, Strain/Indicator: TA98, Metabolic Activation: NONE, Method: PREINCUBATION
[2] = Test System: AMES SALMONELLA TYPHIMURIUM, Strain/Indicator: TA98, Metabolic Activation: NONE, Method: STANDARD PLATE
[3] = Test System: AMES SALMONELLA TYPHIMURIUM, Strain/Indicator: TA98, Metabolic Activation: RAT, LIVER, S-9, AROCLOR 1254, Method: STANDARD PLATE
[4] = Test System: AMES SALMONELLA TYPHIMURIUM, Strain/Indicator: TA100, Metabolic Activation: NONE, Method: STANDARD PLATE
[5] = Test System: AMES SALMONELLA TYPHIMURIUM, Strain/Indicator: TA1535, Metabolic Activation: NONE, Method: STANDARD PLATE
[6] = Test System: AMES SALMONELLA TYPHIMURIUM, Strain/Indicator: TA2637, Metabolic Activation: NONE, Method: STANDARD PLATE
[7] = Test System: AMES SALMONELLA TYPHIMURIUM, Strain/Indicator: TA100, Metabolic Activation: NONE, Method: PREINCUBATION

COc1cccc2c1C(=O)c1c(O)c3c(c(O)c1C2=O)C[C@@](O)(C(C)=O)C[C@@H]3O[C@H]1C[C@H](N)[C@H](O)[C@H](C)O1
mutagenic call (End Point: In vitro micronucleus, Test System: Human lymphoblastoid TK6 cells, Metabolic Activation: None): active; positive (p<0.001) | mutagenic call (Test System: AMES SALMONELLA TYPHIMURIUM, Strain/Indicator: GW257, Metabolic Activation: NONE, Method: STANDARD PLATE): active; positive | mutagenic call (Test System: AMES SALMONELLA TYPHIMURIUM, Strain/Indicator: TA97, Metabolic Activation: NONE, Method: STANDARD PLATE): inactive; negative | mutagenic call [1]: active; positive | mutagenic call [2]: active; positive | mutagenic call [3]: active; positive | mutagenic call (Test System: AMES SALMONELLA TYPHIMURIUM, Strain/Indicator: TA98, Metabolic Activation: RAT, LIVER, S-9, KC500 OR PHENOBARBITAL, Method: LIQUID SUSPENSION): active; positive | mutagenic call [4]: active; positive | mutagenic call (Test System: AMES SALMONELLA TYPHIMURIUM, Strain/Indicator: TA100, Metabolic Activation: RAT, LIVER, S-9, KC500 OR PHENOBARBITAL, Method: LIQUID SUSPENSION): active; positive | mutagenic call (Test System: AMES SALMONELLA TYPHIMURIUM, Strain/Indicator: TA102, Metabolic Activation: NONE, Method: STANDARD PLATE): active; positive | mutagenic call (Test System: AMES SALMONELLA TYPHIMURIUM, Strain/Indicator: TA104, Metabolic Activation: NONE, Method: STANDARD PLATE): inactive; negative | mutagenic call [5]: inactive; negative | mutagenic call (Test System: AMES SALMONELLA TYPHIMURIUM, Strain/Indicator: TA1538, Metabolic Activation: NONE, Method: STANDARD PLATE): active; positive | mutagenic call (Test System: AMES SALMONELLA TYPHIMURIUM, Strain/Indicator: TA1978/PKM101, Metabolic Activation: NONE, Method: STANDARD PLATE): active; positive | mutagenic call (Test System: AMES SALMONELLA TYPHIMURIUM, Strain/Indicator: TA1978, Metabolic Activation: NONE, Method: STANDARD PLATE): inactive; negative | mutagenic call [6]: active; positive | mutagenic call (Test System: AMES SALMONELLA TYPHIMURIUM, Strain/Indicator: TA2638, Metabolic Activation: NONE, Method: STANDARD PLATE): active; positive | mutagenic call (Test System: CHINESE HAMSTER V-79, Strain/Indicator: V-79/6-THIOGUANINE, Metabolic Activation: NONE, Method: SUSPENSION/PLATE): inactive; negative | mutagenic call (Test System: CHINESE HAMSTER V-79, Strain/Indicator: V-79/6-THIOGUANINE, Metabolic Activation: RAT, LIVER, HOMOGENATE, Method: SUSPENSION/PLATE): inactive; negative | mutagenic call (Test System: CHINESE HAMSTER V-79, Strain/Indicator: V-79/8-AZAGUANINE, Metabolic Activation: NONE, Method: STANDARD PLATE): active; positive | mutagenic call (Test System: E. COLI, Strain/Indicator: WP2 (HCR), Metabolic Activation: NONE, Method: STANDARD PLATE): inactive; negative | mutagenic call (Test System: E. COLI, Strain/Indicator: WP2 (PKM101), Metabolic Activation: NONE, Method: STANDARD PLATE): active; positive | mutagenic call (Test System: E. COLI, Strain/Indicator: WP2 UVRA (PKM101), Metabolic Activation: NONE, Method: STANDARD PLATE): active; positive | mutagenic call (Test System: UDS RAT HEPATOCYTES, Strain/Indicator: THY INCORP, Metabolic Activation: NONE, Method: AUTOMATIC COLONY COUNTER): active; positive

O=C(O)c1cc(Br)cc2cccnc12
mutagenic call [2]: inactive; negative | mutagenic call [3]: inactive; negative | mutagenic call [4]: inactive; negative | mutagenic call (Test System: AMES SALMONELLA TYPHIMURIUM, Strain/Indicator: TA100, Metabolic Activation: RAT, LIVER, S-9, AROCLOR 1254, Method: STANDARD PLATE): inactive; negative | mutagenic call [5]: inactive; negative | mutagenic call (Test System: AMES SALMONELLA TYPHIMURIUM, Strain/Indicator: TA1535, Metabolic Activation: RAT, LIVER, S-9, AROCLOR 1254, Method: STANDARD PLATE): inactive; negative | mutagenic call (Test System: AMES SALMONELLA TYPHIMURIUM, Strain/Indicator: TA1537, Metabolic Activation: NONE, Method: STANDARD PLATE): inactive; negative | mutagenic call (Test System: AMES SALMONELLA TYPHIMURIUM, Strain/Indicator: TA1537, Metabolic Activation: RAT, LIVER, S-9, AROCLOR 1254, Method: STANDARD PLATE): inactive; negative

C[C@H]1C=C(C=O)[C@H](C=O)[C@@H](O)[C@@H]2CC(C)(C)C[C@@H]21
mutagenic call [2]: inactive; negative | mutagenic call [4]: inactive; negative | mutagenic call [6]: inactive; negative

Cc1ccc(C)c(NO)c1
mutagenic call [7]: active; positive | mutagenic call (Test System: AMES SALMONELLA TYPHIMURIUM, Strain/Indicator: TA100, Metabolic Activation: RAT, LIVER, S-9, PCB, Method: PREINCUBATION): active; positive

O=S(=O)(O)c1ccc(O)c2ncccc12
mutagenic call [1]: inactive; negative | mutagenic call (Test System: AMES SALMONELLA TYPHIMURIUM, Strain/Indicator: TA98, Metabolic Activation: RAT, LIVER, S-9, Method: PREINCUBATION): active; positive | mutagenic call [7]: inactive; negative | mutagenic call (Test System: AMES SALMONELLA TYPHIMURIUM, Strain/Indicator: TA100, Metabolic Activation: RAT, LIVER, S-9, Method: PREINCUBATION): active; positive

CC(=O)N(O)c1ccc(-c2ccccc2)cc1
mutagenic call (Test System: AMES SALMONELLA TYPHIMURIUM, Strain/Indicator: TA98(1,8-DNP6), Metabolic Activation: HUMAN, UROEPITHELIAL CELL, MICROSOMES, Method: PREINCUBATION): inactive; negative | mutagenic call (Test System: AMES SALMONELLA TYPHIMURIUM, Strain/Indicator: TA98(1,8-DNP6), Metabolic Activation: NONE, Method: PREINCUBATION): inactive; negative | mutagenic call (Test System: AMES SALMONELLA TYPHIMURIUM, Strain/Indicator: TA98(1,8-DNP6), Metabolic Activation: RAT, LIVER, S-9, AROCLOR, Method: PREINCUBATION): active; positive | mutagenic call (Test System: AMES SALMONELLA TYPHIMURIUM, Strain/Indicator: TA98, Metabolic Activation: DOG, BLADDER, MICROSOMES, Method: PREINCUBATION): active; positive | mutagenic call (Test System: AMES SALMONELLA TYPHIMURIUM, Strain/Indicator: TA98, Metabolic Activation: DOG, LIVER, MICROSOMES, Method: PREINCUBATION): active; positive | mutagenic call (Test System: AMES SALMONELLA TYPHIMURIUM, Strain/Indicator: TA98, Metabolic Activation: HUMAN, UROEPITHELIAL CELL, CYTOSOL, Method: PREINCUBATION): active; positive | mutagenic call (Test System: AMES SALMONELLA TYPHIMURIUM, Strain/Indicator: TA98, Metabolic Activation: HUMAN, UROEPITHELIAL CELL, MICROSOMES, Method: PREINCUBATION): active; positive | mutagenic call (Test System: AMES SALMONELLA TYPHIMURIUM, Strain/Indicator: TA98, Metabolic Activation: HUMAN, UROEPITHELIAL CELL, S-9, Method: PREINCUBATION): active; positive | mutagenic call [1]: inactive; negative | mutagenic call (Test System: AMES SALMONELLA TYPHIMURIUM, Strain/Indicator: TA98, Metabolic Activation: RAT, BLADDER, MICROSOMES, Method: PREINCUBATION): inactive; negative | mutagenic call (Test System: AMES SALMONELLA TYPHIMURIUM, Strain/Indicator: TA98, Metabolic Activation: RAT, LIVER, CYTOSOL, Method: PREINCUBATION): active; positive | mutagenic call (Test System: AMES SALMONELLA TYPHIMURIUM, Strain/Indicator: TA98, Metabolic Activation: RAT, LIVER, MICROSOMES, Method: PREINCUBATION): active; positive | mutagenic call (Test System: AMES SALMONELLA TYPHIMURIUM, Strain/Indicator: TA98, Metabolic Activation: RAT, LIVER, S-9, AROCLOR, Method: PREINCUBATION): active; positive | mutagenic call (Test System: AMES SALMONELLA TYPHIMURIUM, Strain/Indicator: YG1024, Metabolic Activation: HUMAN, UROEPITHELIAL CELL, MICROSOMES, Method: PREINCUBATION): active; positive | mutagenic call (Test System: UDS HUMAN FIBROBLASTS, Strain/Indicator: THY INCORP (NON-S-PHASE), Metabolic Activation: NONE, Method: AUTORADIOGRAPHY): active; positive
